Results published in publication PMC5632533, “Mechanisms of action and in vivo antibacterial efficacy assessment of five novel hybrid peptides derived from Indolicidin and Ranalexin against Streptococcus pneumoniae” (PeerJ, 2017).

Assays:
ICR (CD-1) mice = assay: In vivo toxicity in mice (SC, IN, IP routes); parameters: Aspartate aminotransferase, AST / Alanine transaminase, ALT / Alkaline phosphatase, ALP / Creatinine / Urea / Total bilirubin: unit not given here; details: for Eosinophil / Erythrocytes, RBC / Granulocytes / Hematocrit, HCT / Hemoglobin Hgb / Lymphocytes / Mean corpuscular haemoglobin concentration, MCHC / Mean corpuscular haemoglobin, MCH / Mean corpuscular volume, MCV / Monocytes / White blood cells, WBC / platelet Counts, PLT / Alanine transaminase, ALT / Alkaline phosphatase, ALP / Aspartate aminotransferase, AST / Creatinine / Total bilirubin / Urea: 3 doses (1hr, 12hr, 24hr), RN7-IN9, RN7-IN6 10 mg/kg, day 7, mean±SD, 4 mice; for Alanine transaminase, ALT / Alkaline phosphatase, ALP / Aspartate aminotransferase, AST / Creatinine / Total bilirubin / Urea: serum
Procedure: In this study, 4-week old male, pathogen free ICR (CD-1) mice were purchased from InVivos (Lim Chu Kang, Singapore) and used to assess the in vivo toxicity and antibacterial efficacy of the novel peptides, as these animals are by far the most commonly used model for the study of pneumococcal disease ([Chiavolini, Pozzi & Ricci, 2008]). The mice were kept in ventilated polycarbonate cages (12 h light/dark cycle, 20 ± 2 °C and 55% relative humidity). All mice were familiarized for seven days before any experimental procedure and were given unlimited pellets and water ad libitum. All animal experimentations were conducted according to the guidelines approved by Faculty of Medicine Institutional Animal Care and Use Committee (FOM IACUC), University of Malaya (ethics Reference no. : 2013-07-15/MMBTR/SDS).
In order to evaluate the possible toxic effects correlated to peptides administered in mice, four hybrid peptides RN7-IN10, RN7-IN9, RN7-IN8 and RN7-IN6 were chosen for in vivo toxicity assessment, due to their promising in vitro antibacterial activity ([Jindal et al., 2015]). Mice were separated into four groups (each with four mice) and were injected with respective peptides at 1 h, 12 h, and 24 h (three-dose regimen) via IP, SC, and IN administration routes. The hybrid peptides were first administered at high doses (100 mg/kg for IP route, 100 mg/kg for SC routes and 20 mg/kg for IN route). Any abnormal behavior was recorded and survival of mice was noted as well. In case adverse effects such as high physical stress, severe lethargy, physical inactiveness, and/or death were detected, lower graded doses were given. All the administered mice were monitored for seven days or until death occurred. At day seven post administration, all animals were sacrificed and blood and organs were collected. Untreated mice were used as a control group.
Mice used to evaluate the in vivo toxicity and antibacterial activity of the hybrid peptides using the subcutaneous (SC) and intranasal (IN) administration routes, were anesthetized using a combination of a standard dose of xylazine (ilium xylazil-20, 10 mg/kg) and ketamine (Narketan®-10, 100 mg/kg) through intraperitoneal (IP) injection. After seven days of treatment, the in vivo toxicity and antibacterial efficacy experiments were ended and the surviving mice were anesthetized. Blood samples for Hematological and biochemical analysis were collected via cardiac puncture using a 25G syringe (BD bioscience, San Jose, CA, USA). Whole blood for heamatological analysis was collected in 500 µl dipotassium EDTA microtainer tubes (BD Bioscience, USA). About 500 µl of blood collected an eppedorff tube and centrifuged at 8000 rpm for 5 min and then the serum was transferred into a new 1.5 ml tube for biochemistry analysis. The mice were then euthanized by cervical dislocation, dissected and the following organs were collected for histopathology evaluation: lung, kidney, brain, liver and spleen.
For whole blood analysis, the parameters were number of red cells (RBC), number of white cells (WBC), lymphocytes, monocytes, eosinophil, granulocytes, haemoglobin (Hgb), mean corpuscular volume (MCV), hematocrit (HCT), platelet Counts (PLT), Mean corpuscular haemoglobin (MCH) and corpuscular haemoglobin concentration (MCHC). For biochemistry analysis, the parameters were alanine transaminase (ALT), creatinine, alkaline phosphatase (ALP), aspartate aminotransferase (AST), total bilirubin and urea.
The following organs were collected from all the dissected mice: lung, kidney, brain, spleen, and liver. All tissues were fixed in 10% (v/v) buffered formalin and processed for paraffin embedding. Hematoxylin–eosin (HE) was used to stain the histological sections at the histopathology laboratory, Veterinary Laboratory Service Unit, University Putra Malaysia (UPM).

S. pneumoniae = assay: ATP efflux assay; type: cell-based, Streptococcus pneumoniae; details: peptides 125 µg/ml (RN7-IN7 500 µg/ml)
Procedure: The amount of ATP released from pneumococcal cells incubated with hybrid peptides was measured as described previously, with a slight modification ([Tanida et al., 2006]). The ATP determination kit (Molecular Probes, Eugene, OR, USA) was used to measure the amount of ATP released based on the luciferin/luciferase method according to the manufacturer’s instructions. Briefly, S. pneumoniae were grown overnight on Columbia agar with 5% sheep blood. Bacterial suspensions were spectrophotometrically adjusted to (1 × 10^7 CFU/ml) and incubated with hybrid peptides RN7-IN10, RN7-IN9, RN7-IN8 and RN7-IN6 at 125 µg/ml and with RN7-IN7 at 500 µg/ml. The amount of ATP released form the pneumococcal cells were measured at three time points 1, 2 and 3 h. The samples were then centrifuged at 5,000 rpm for 5 min, and ATP efflux was subsequently estimated using an ATP standard curve. Values were obtained from three independent experiments. Ceftriaxone and erythromycin were used as positive controls.

[1] = IN, head doses: RN7-IN10, RN7-IN8 20 mg/kg
[2] = SC, head doses: RN7-IN10, RN7-IN8 20 mg/kg
[3] = 1 × 10^7 CFU/ml, luciferin/luciferase, ATP standard curve, mean ± SD, three independent experiments

FLGGLIKWKWPWWPWRR-NH2 [RN7-IN10, hybrid peptide of ranalexin (residues 1-7) and indolicidin (residues 4-13)]
Eosinophil (ICR (CD-1) mice; [1]): 2.7±0.97%
Erythrocytes, RBC (ICR (CD-1) mice; [1]): 9.62±0.79 10^6/mm^3
Granulocytes (ICR (CD-1) mice; [1]): 66.6±21.64%
Hematocrit, HCT (ICR (CD-1) mice; [1]): 47.95±3.18%
Hemoglobin Hgb (ICR (CD-1) mice; [1]): 15.47 ± 1.07 g/dL
Lymphocytes (ICR (CD-1) mice; [1]): 58.5±7.53%
Mean corpuscular haemoglobin concentration, MCHC (ICR (CD-1) mice; [1]): 28.3 ± 8.15 g/dL
Mean corpuscular haemoglobin, MCH (ICR (CD-1) mice; [1]): 20 ± 7.87 pg
Mean corpuscular volume, MCV (ICR (CD-1) mice; [1]): 50.75±1.7 µm^3
Monocytes (ICR (CD-1) mice; [1]): 2.2±0.37%
White blood cells, WBC (ICR (CD-1) mice; [1]): 5.2±1.44 10^3/mm^3
platelet Counts, PLT (ICR (CD-1) mice; [1]): 619.5±100.42 10^3/mm^3
Eosinophil (ICR (CD-1) mice; IP, RN7-IN10, RN7-IN8 20 mg/kg): 2.23±1.61%
Erythrocytes, RBC (ICR (CD-1) mice; IP, RN7-IN10, RN7-IN8 20 mg/kg): 9.16±0.92 10^6/mm^3
Granulocytes (ICR (CD-1) mice; IP, RN7-IN10, RN7-IN8 20 mg/kg): 46.27±16.41%
Hematocrit, HCT (ICR (CD-1) mice; IP, RN7-IN10, RN7-IN8 20 mg/kg): 47.67±5.6%
Hemoglobin Hgb (ICR (CD-1) mice; IP, RN7-IN10, RN7-IN8 20 mg/kg): 15.85 ± 1.27 g/dL
Lymphocytes (ICR (CD-1) mice; IP, RN7-IN10, RN7-IN8 20 mg/kg): 51.03±16.69%
Mean corpuscular haemoglobin concentration, MCHC (ICR (CD-1) mice; IP, RN7-IN10, RN7-IN8 20 mg/kg): 33.85 ± 0.60 g/dL
Mean corpuscular haemoglobin, MCH (ICR (CD-1) mice; IP, RN7-IN10, RN7-IN8 20 mg/kg): 17.6 ± 0.46 pg
Mean corpuscular volume, MCV (ICR (CD-1) mice; IP, RN7-IN10, RN7-IN8 20 mg/kg): 50.75±2.06 µm^3
Monocytes (ICR (CD-1) mice; IP, RN7-IN10, RN7-IN8 20 mg/kg): 2.8±0.5%
White blood cells, WBC (ICR (CD-1) mice; IP, RN7-IN10, RN7-IN8 20 mg/kg): 4.2±0.55 10^3/mm^3
platelet Counts, PLT (ICR (CD-1) mice; IP, RN7-IN10, RN7-IN8 20 mg/kg): 535±150.11 10^3/mm^3
maximum IP dose at which no signs of stress or abnormal behavior were evident (non-toxic dose) (ICR (CD-1) mice; IP, doses at 1 h, 12 h, 24 h, no death up to seven days): 20 mg/kg
Eosinophil (ICR (CD-1) mice; [2]): 2.82±0.25%
Erythrocytes, RBC (ICR (CD-1) mice; [2]): 8.04±1.18 10^6/mm^3
Hematocrit, HCT (ICR (CD-1) mice; [2]): 41.5±3.7%
Hemoglobin Hgb (ICR (CD-1) mice; [2]): 13.75 ± 1.77 g/dL
Lymphocytes (ICR (CD-1) mice; [2]): 52.2±3.3%
Mean corpuscular haemoglobin concentration, MCHC (ICR (CD-1) mice; [2]): 34.45 ± 1.35 g/dL
Mean corpuscular haemoglobin, MCH (ICR (CD-1) mice; [2]): 17.08 ± 0.4 pg
Mean corpuscular volume, MCV (ICR (CD-1) mice; [2]): 50±2.16 µm^3
Monocytes (ICR (CD-1) mice; [2]): 2.2±0.28%
White blood cells, WBC (ICR (CD-1) mice; [2]): 3.8±0.2 10^3/mm^3
platelet Counts, PLT (ICR (CD-1) mice; [2]): 568.75±81.73 10^3/mm^3
Alanine transaminase, ALT (ICR (CD-1) mice; [1]): 66.9±17.02
Alkaline phosphatase, ALP (ICR (CD-1) mice; [1]): 133.3±10.1
Aspartate aminotransferase, AST (ICR (CD-1) mice; [1]): 172±8.78
Creatinine (ICR (CD-1) mice; [1]): 40.94±0.83
Total bilirubin (ICR (CD-1) mice; [1]): 2.15±0.14
Urea (ICR (CD-1) mice; [1]): 9.3±1.68
Alanine transaminase, ALT (ICR (CD-1) mice; IP, RN7-IN10, RN7-IN8 20 mg/kg): 52.76±12.22
Alkaline phosphatase, ALP (ICR (CD-1) mice; IP, RN7-IN10, RN7-IN8 20 mg/kg): 124.33±10.6
Aspartate aminotransferase, AST (ICR (CD-1) mice; IP, RN7-IN10, RN7-IN8 20 mg/kg): 181.66±38.27
Creatinine (ICR (CD-1) mice; IP, RN7-IN10, RN7-IN8 20 mg/kg): 38.1±6.97
Total bilirubin (ICR (CD-1) mice; IP, RN7-IN10, RN7-IN8 20 mg/kg): 1.82±0.03
Urea (ICR (CD-1) mice; IP, RN7-IN10, RN7-IN8 20 mg/kg): 9.6±2.11
Alanine transaminase, ALT (ICR (CD-1) mice; [2]): 51.25±11.9
Aspartate aminotransferase, AST (ICR (CD-1) mice; [2]): 175±25.41
Creatinine (ICR (CD-1) mice; [2]): 37.8±3.43
Total bilirubin (ICR (CD-1) mice; [2]): 2.1±0.35
Urea (ICR (CD-1) mice; [2]): 9.2±0.8
ATP released from pneumococcal cells after 1 h (S. pneumoniae; [3]): 54.5 ± 4.7 pM
ATP released from pneumococcal cells after 3 h (S. pneumoniae; [3]): 25.42 ± 3.51 pM
ATP released, Average 1hr (S. pneumoniae; raw data sheet, mean of 3): 54.4965 pM
ATP released, Average 2hr (S. pneumoniae; raw data sheet, mean of 3): 41.9293 pM
ATP released, Average 3hr (S. pneumoniae; raw data sheet, mean of 3): 25.4295 pM
